According to patent US10717716B2, “1,3,4-oxadiazole derivative compounds as histone deacetylase 6 inhibitor, and the pharmaceutical composition comprising the same” (Chong Kun Dang Pharmaceutical Corp., priority 2015, dated 2020):

Legend:
[1] = target: T1, human recombinant HDAC1 (Homo sapiens, UniProt Q13547); test: HDAC1 enzyme activity inhibition assay (HDAC Fluorimetric Drug Discovery Kit); type: biochemical; conditions: human recombinant HDAC1, Fluor de Lys substrate 10 μM, 30° C. 60 minutes
T1 construct: purchased Enzo Life Science BML-SE456
Protocol: In order to examine the HDAC6 selectivity of the compounds of formula I of the present invention by HDAC1 and HDAC6 enzymatic activity inhibition assays, an experiment was performed using a conventional substance as a control.
HDAC enzyme activity was measured using a HDAC Fluorimetric Drug Discovery Kit (BML-AK511, 516, Enzo Life Science). For the HDAC1 enzyme activity test, human recombinant HDAC1 (BML-SE456) was used as an enzyme source, and Fluor de Lys®-“SIRT1 (BNL-KI177) was used as a substrate. A 5-fold dilution of the compound was seeded into a 96-well plate, and then 0.3 μg of the enzyme and 10 μM of the substrate were added to each well of the plate and allowed to react at 30° C. for 60 minutes. Then, Fluor de Lys®-Developer II (BML-KI176) was added thereto and allowed to react for 30 minutes, after which the fluorescence value (Ex 360, Em 460) was measured using a multi-plate reader (Flexstation 3, Molecular Device). The HDAC6 enzyme was tested using human recombinant HDAC6 (382180) (Calbiochem) according to the same protocol as the HDAC1 enzyme activity test method. Based on the resulting values, each IC5, value was calculated using GraphPad Prism4.0 program.

[2] = target: T2, human recombinant HDAC6 (Homo sapiens, UniProt Q9UBN7); test: HDAC6 enzyme activity inhibition assay (HDAC Fluorimetric Drug Discovery Kit); type: biochemical; conditions: for HDAC6 selectivity (fold): HDAC6 over HDAC1; for IC50: human recombinant HDAC6, same protocol as HDAC1, read-out: HDAC6
T2 construct: purchased Calbiochem 382180
T2 sequence (Q9UBN7 1-1215): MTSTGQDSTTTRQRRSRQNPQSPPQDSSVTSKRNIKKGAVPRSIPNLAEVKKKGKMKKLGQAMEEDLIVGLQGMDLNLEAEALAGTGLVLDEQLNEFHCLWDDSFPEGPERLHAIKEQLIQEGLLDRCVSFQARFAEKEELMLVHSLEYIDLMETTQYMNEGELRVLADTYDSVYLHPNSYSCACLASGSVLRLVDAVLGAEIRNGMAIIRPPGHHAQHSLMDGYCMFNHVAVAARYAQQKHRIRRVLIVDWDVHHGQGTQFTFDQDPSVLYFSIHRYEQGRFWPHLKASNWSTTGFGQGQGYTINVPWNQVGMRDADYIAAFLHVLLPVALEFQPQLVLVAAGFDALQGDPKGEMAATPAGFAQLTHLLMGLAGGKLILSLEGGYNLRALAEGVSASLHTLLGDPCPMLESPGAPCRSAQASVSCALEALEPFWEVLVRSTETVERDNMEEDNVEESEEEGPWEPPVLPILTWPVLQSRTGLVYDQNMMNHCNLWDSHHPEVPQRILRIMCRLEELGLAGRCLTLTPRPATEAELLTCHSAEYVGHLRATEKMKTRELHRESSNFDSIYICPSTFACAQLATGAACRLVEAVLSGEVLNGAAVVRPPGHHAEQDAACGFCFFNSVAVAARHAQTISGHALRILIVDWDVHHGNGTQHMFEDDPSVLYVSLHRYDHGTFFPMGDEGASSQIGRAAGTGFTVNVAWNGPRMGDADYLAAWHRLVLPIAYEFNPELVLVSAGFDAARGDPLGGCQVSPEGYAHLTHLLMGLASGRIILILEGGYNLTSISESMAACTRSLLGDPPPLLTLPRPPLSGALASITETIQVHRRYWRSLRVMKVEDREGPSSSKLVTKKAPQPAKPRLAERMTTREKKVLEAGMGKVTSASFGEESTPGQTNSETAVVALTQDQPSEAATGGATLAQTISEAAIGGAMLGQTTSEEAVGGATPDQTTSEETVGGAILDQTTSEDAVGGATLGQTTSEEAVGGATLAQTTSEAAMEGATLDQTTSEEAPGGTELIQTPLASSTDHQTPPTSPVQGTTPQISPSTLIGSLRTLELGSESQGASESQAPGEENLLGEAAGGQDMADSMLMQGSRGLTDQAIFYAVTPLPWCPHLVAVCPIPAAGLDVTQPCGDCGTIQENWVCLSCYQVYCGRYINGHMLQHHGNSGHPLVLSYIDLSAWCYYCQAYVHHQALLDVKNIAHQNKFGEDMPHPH
Outline: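 Human recombinant HDAC1 or HDAC6 (0.3 μg) reacted with 10 μM Fluor de Lys-SIRT1 substrate and 5-fold compound dilutions for 60 min at 30 °C. Developer II added for 30 min, fluorescence read at Ex 360/Em 460; IC50 calculated from the readings.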

T1 sequence (Q13547 whole entry): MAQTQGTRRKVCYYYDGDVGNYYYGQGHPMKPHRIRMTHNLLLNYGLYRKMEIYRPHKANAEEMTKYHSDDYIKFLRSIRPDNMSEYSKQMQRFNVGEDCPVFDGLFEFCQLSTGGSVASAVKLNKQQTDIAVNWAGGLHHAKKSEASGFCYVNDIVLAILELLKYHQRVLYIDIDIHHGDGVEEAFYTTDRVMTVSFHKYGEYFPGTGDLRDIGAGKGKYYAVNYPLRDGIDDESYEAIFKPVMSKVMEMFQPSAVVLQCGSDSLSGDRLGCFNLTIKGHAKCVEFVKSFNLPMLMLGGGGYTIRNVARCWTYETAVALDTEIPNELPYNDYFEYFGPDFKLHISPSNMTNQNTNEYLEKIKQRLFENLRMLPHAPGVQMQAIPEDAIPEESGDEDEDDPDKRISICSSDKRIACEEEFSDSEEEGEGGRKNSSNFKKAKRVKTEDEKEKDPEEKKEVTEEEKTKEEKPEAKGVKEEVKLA

| IC50 [1] [nM] | HDAC6 selectivity (fold) [2] [fold] | IC50 [2] [nM] | SMILES |
| --- | --- | --- | --- |
| 6110 | 6 | 1010 | O=C(N1CCS(=O)(=O)CC1)N(Cc1ccc(-c2nnc(C(F)(F)F)o2)cc1)c1cccc(-c2ccccc2)c1 [Compound 21439, N-([1,1′-biphenyl]-3-yl)-N-(4-(5-(trifluoromethyl)-1,3,4-oxadiazol-2-yl)benzyl)thiomorpholine-4-carboxamide 1,1-dioxide] |
| 2530 | 18 | 139 | COc1cccc(N(Cc2ccc(-c3nnc(C(F)(F)F)o3)cc2)C(=O)N2CCS(=O)(=O)CC2)c1 [Compound 21441, N-(3-methoxyphenyl)-N-(4-(5-(trifluoromethyl)-1,3,4-oxadiazol-2-yl)benzyl)thiomorpholine-4-carboxamide 1,1-dioxide] |
| 8730 | 77 | 114 | Cc1cccc(N(Cc2ccc(-c3nnc(C(F)(F)F)o3)cc2)C(=O)N2CCS(=O)(=O)CC2)c1 [Compound 21442, N-(m-tolyl)-N-(4-(5-(trifluoromethyl)-1,3,4-oxadiazol-2-yl)benzyl)thiomorpholine-4-carboxamide 1,1-dioxide] |
| 4420 | 12 | 369 | O=C(N1CCS(=O)(=O)CC1)N(Cc1ccc(-c2nnc(C(F)(F)F)o2)cc1)c1ccc(-c2ccccc2)cc1 [Compound 21485, N-([1,1′-biphenyl]-4-yl)-N-(4-(5-(trifluoromethyl)-1,3,4-oxadiazol-2-yl)benzyl)thiomorpholine-4-carboxamide 1,1-dioxide] |
| 1650 | 18 | 89 | O=C(N1CCS(=O)(=O)CC1)N(Cc1ccc(-c2nnc(C(F)(F)F)o2)cc1)c1ccc(-c2cccnc2)cc1 [Compound 21489, N-(4-(pyridin-3-yl)phenyl)-N-(4-(5-(trifluoromethyl)-1,3,4-oxadiazol-2-yl)benzyl)thiomorpholine-4-carboxamide 1,1-dioxide] |
| 4040 | 25 | 157 | O=C(N1CCS(=O)(=O)CC1)N(Cc1ccc(-c2nnc(C(F)(F)F)o2)cc1)c1ccc(-c2ccoc2)cc1 [Compound 21491, N-(4-(furan-3-yl)phenyl)-N-(4-(5-(trifluoromethyl)-1,3,4-oxadiazol-2-yl)benzyl)thiomorpholine-4-carboxamide 1,1-dioxide] |

The next lines start with the compound.

| SMILES | IC50 [1] [nM] | HDAC6 selectivity (fold) [2] [fold] | IC50 [2] [nM] |
| --- | --- | --- | --- |
| CS(=O)(=O)c1ccc(N(Cc2ccc(-c3nnc(C(F)(F)F)o3)cc2)C(=O)N2CCOCC2)cc1 [Compound 21443, N-(4-(methylsulfonyl)phenyl)-N-(4-(5-(trifluoromethyl)-1,3,4-oxadiazol-2-yl)benzyl)morpholine-4-carboxamide] | 7440 | 20 | 366 |
| Cn1ncc2ccc(-c3ccc(N(Cc4ccc(-c5nnc(C(F)(F)F)o5)cc4)C(=O)N4CCS(=O)(=O)CC4)cc3)cc21 [Compound 21487, N-(4-(1-methyl-1H-indazol-6-yl)phenyl)-N-(4-(5-(trifluoromethyl)-1,3,4-oxadiazol-2-yl)benzyl)thiomorpholine-4-carboxamide 1,1-dioxide] | 1950 | 6 | 344 |
| O=C(N1CCS(=O)(=O)CC1)N(Cc1ccc(-c2nnc(C(F)(F)F)o2)cc1)c1ccc(-c2ccc3c(c2)OCO3)cc1 [Compound 21493, N-(4-(benzo[d][1,3]dioxol-5-yl)phenyl)-N-(4-(5-(trifluoromethyl)-1,3,4-oxadiazol-2-yl)benzyl)thiomorpholine-4-carboxamide 1,1-dioxide] | 1740 | 6 | 313 |
| O=C(N1CCS(=O)(=O)CC1)N(Cc1ccc(-c2nnc(C(F)(F)F)o2)cc1F)c1ccc(-c2cccnc2)cc1 [Compound 21517, N-(2-fluoro-4-(5-(trifluoromethyl)-1,3,4-oxadiazol-2-yl)benzyl)-N-(4-(pyridin-3-yl)phenyl)thiomorpholine-4-carboxamide 1,1-dioxide] | 2920 | 31 | 93 |
| O=C(N1CCS(=O)(=O)CC1)N(Cc1ccc(-c2nnc(C(F)(F)F)o2)cc1F)c1ccc(-c2ccncc2)cc1 [Compound 21519, N-(2-fluoro-4-(5-(trifluoromethyl)-1,3,4-oxadiazol-2-yl)benzyl)-N-(4-(pyridin-4-yl)phenyl)thiomorpholine-4-carboxamide 1,1-dioxide] | 2650 | 20 | 131 |
| O=C(N1CCS(=O)(=O)CC1)N(Cc1ccc(-c2nnc(C(F)(F)F)o2)cc1F)c1ccc2c(c1)CCO2 [Compound 21543, N-(2,3-dihydrobenzofuran-5-yl)-N-(2-fluoro-4-(5-(trifluoromethyl)-1,3,4-oxadiazol-2-yl)benzyl)thiomorpholine-4-carboxamide 1,1-dioxide] | 4750 | 64 | 73 |
| Cn1ncc2ccc(N(Cc3ccc(-c4nnc(C(F)(F)F)o4)cc3F)C(=O)N3CCS(=O)(=O)CC3)cc21 [Compound 21545, N-(2-fluoro-4-(5-(trifluoromethyl)-1,3,4-oxadiazol-2-yl)benzyl)-N-(1-methyl-1H-indazol-6-yl)thiomorpholine-4-carboxamide 1,1-dioxide] | 4440 | 85 | 52 |
| CCN1CCN(C(=O)N(Cc2ccc(-c3nnc(C(F)(F)F)o3)cc2F)c2ccc(F)c(Cl)c2)CC1 [Compound 21592, N-(3-chloro-4-fluorophenyl)-4-ethyl-N-(2-fluoro-4-(5-(trifluoromethyl)-1,3,4-oxadiazol-2-yl)benzyl)piperazine-1-carboxamide] | 8280 | 100 | 100 |
| CCN1CCN(C(=O)N(Cc2ccc(-c3nnc(C(F)F)o3)cc2F)c2ccc(F)cc2Cl)CC1 [Compound 21650, N-(2-chloro-4-fluorophenyl)-N-(4-(5-(difluoromethyl)-1,3,4-oxadiazol-2-yl)-2-fluorobenzyl)-4-ethylpiperazine-1-carboxamide] | 36100 | 468 | 77 |
| CN(C)[C@H]1CCN(C(=O)N(Cc2ccc(-c3nnc(C(F)F)o3)cc2F)c2ccc(F)cc2Cl)C1 [Compound 21651, (S)—N-(2-chloro-4-fluorophenyl)-N-(4-(5-(difluoromethyl)-1,3,4-oxadiazol-2-yl)-2-fluorobenzyl)-3-(dimethylamino)pyrrolidine-1-carboxamide] | 49200 | 806 | 61 |
| CN(C)[C@@H]1CCN(C(=O)N(Cc2ccc(-c3nnc(C(F)F)o3)cc2F)c2ccc(F)cc2Cl)C1 [Compound 21652, (R)—N-(2-chloro-4-fluorophenyl)-N-(4-(5-(difluoromethyl)-1,3,4-oxadiazol-2-yl)-2-fluorobenzyl)-3-(dimethylamino)pyrrolidine-1-carboxamide] | 36500 | 787 | 46 |
